Assay results published in ChEMBL document CHEMBL1681651, “A broad spectrum anticancer nucleoside with selective toxicity against human colon cells in vitro” (2011).

How the values were obtained:
Type in all cases: functional
KM12 [1] = experiment: Growth inhibition of human KM12 cells assessed as cell growth at 10 uM after 48 hrs by SRB assay; settings: KM12, 48 h, read-out: Activity
Malme-3M = experiment: Growth inhibition of human MALME-3M cells assessed as cell growth at 1 mM after 48 hrs by SRB assay; settings: read-out: Activity
UACC-62 = experiment: Growth inhibition of human UACC62 cells after 48 hrs by […] growth inhibition assay; settings: UACC-62, 48 h
RXF 393 = experiment: Growth inhibition of human RXF393 cells after 48 hrs by […] growth inhibition assay; settings: RXF 393, 48 h
786-0 [2] = experiment: Growth inhibition of human 786-0 cells assessed as cell growth at 100 uM after 48 hrs by SRB assay; settings: 786-0, 48 h, read-out: Activity
SK-MEL-5 [3] = experiment: Growth inhibition of human SK-MEL-5 cells assessed as cell growth at 1 uM after 48 hrs by SRB assay; settings: SK-MEL-5, 48 h, read-out: Activity
A549 = experiment: Growth inhibition of human A549 cells assessed as cell growth at 0.1 uM after 48 hrs by SRB assay; settings: A549, 48 h, read-out: Activity
KM12 [4] = experiment: Growth inhibition of human KM12 cells assessed as cell growth at 1 mM after 48 hrs by SRB assay; settings: KM12, 48 h, read-out: Activity
SF-268 = experiment: Growth inhibition of human SF268 cells assessed as cell growth at 1 mM after 48 hrs by SRB assay; settings: SF-268, 48 h, read-out: Activity
NCI/ADR-RES = experiment: Growth inhibition of human NCI/ADR-RES cells assessed as cell growth at 0.1 uM after 48 hrs by SRB assay; settings: read-out: Activity
MCF7 = experiment: Growth inhibition of human MCF7 cells after 48 hrs by […] growth inhibition assay; settings: MCF7, 48 h
CCRF-CEM [5] = experiment: Growth inhibition of human CCRF-CEM cells assessed as cell growth at 1 uM after 48 hrs by SRB assay; settings: read-out: Activity
SK-MEL-5 [6] = experiment: Growth inhibition of human SK-MEL-5 cells assessed as cell growth at 100 uM after 48 hrs by SRB assay; settings: SK-MEL-5, 48 h, read-out: Activity
SK-MEL-28 = experiment: Growth inhibition of human SK-MEL-28 cells after 48 hrs by […] growth inhibition assay; settings: SK-MEL-28, 48 h
LOX IMVI = experiment: Growth inhibition of human LOXIMVI cells assessed as cell growth at 0.1 uM after 48 hrs by SRB assay; settings: read-out: Activity
SK-MEL-5 [7] = experiment: Growth inhibition of human SK-MEL-5 cells after 48 hrs by […] growth inhibition assay; settings: SK-MEL-5, 48 h
IGROV-1 = experiment: Growth inhibition of human IGROV1 cells assessed as cell growth at 10 uM after 48 hrs by SRB assay; settings: IGROV-1, 48 h, read-out: Activity
DU-145 = experiment: Growth inhibition of human DU145 cells after 48 hrs by […] growth inhibition assay; settings: DU-145, 48 h
MDA-MB-435 = experiment: Growth inhibition of human MDA-MB-435 cells assessed as cell growth at 1 mM after 48 hrs by SRB assay; settings: MDA-MB-435, 48 h, read-out: Activity
SK-MEL-2 = experiment: Growth inhibition of human SK-MEL-2 cells after 48 hrs by […] growth inhibition assay; settings: SK-MEL-2, 48 h
CCRF-CEM [8] = experiment: Growth inhibition of human CCRF-CEM cells assessed as cell growth at 10 uM after 48 hrs by SRB assay; settings: read-out: Activity
SF-295 [9] = experiment: Growth inhibition of human SF295 cells assessed as cell growth at 10 uM after 48 hrs by SRB assay; settings: SF-295, 48 h, read-out: Activity
OVCAR-5 [10] = experiment: Growth inhibition of human OVCAR5 cells assessed as cell growth at 1 mM after 48 hrs by SRB assay; settings: OVCAR-5, 48 h, read-out: Activity
786-0 [11] = experiment: Growth inhibition of human 786-0 cells after 48 hrs by […] growth inhibition assay; settings: 786-0, 48 h
OVCAR-3 = experiment: Growth inhibition of human OVCAR3 cells assessed as cell growth at 10 uM after 48 hrs by SRB assay; settings: OVCAR-3, 48 h, read-out: Activity
HCC 2998 = experiment: Growth inhibition of human HCC2998 cells assessed as cell growth at 1 uM after 48 hrs by SRB assay; settings: HCC 2998, 48 h, read-out: Activity
OVCAR-5 [12] = experiment: Growth inhibition of human OVCAR5 cells after 48 hrs by […] growth inhibition assay; settings: OVCAR-5, 48 h
NCI-H322M = experiment: Growth inhibition of human NCI-H322M cells assessed as cell growth at 100 uM after 48 hrs by SRB assay; settings: read-out: Activity
NCI-H522 = experiment: Growth inhibition of human NCI-H522 cells assessed as cell growth at 100 uM after 48 hrs by SRB assay; settings: NCI-H522, 48 h, read-out: Activity
SF-295 [13] = experiment: Growth inhibition of human SF295 cells after 48 hrs by […] growth inhibition assay; settings: SF-295, 48 h
[14] = read-out: LC50 (the source's name)
[15] = read-out: pLC50 (the source's name) (converted)

## CCOC(=O)C[C@H]1[C@@H](O[Si](C)(C)C(C)(C)C)[C@H](n2cnc3c(NC(=O)Nc4ccccc4)ncnc32)O[C@@H]1CNC(=O)NC
KM12 [1]
  growth at 10 µM: 105%
Malme-3M
  growth at 1000 µM: 17%
UACC-62; read-out: GI50
  GI50: > 100 µM
UACC-62; [14]
  CC50: > 100 µM
UACC-62; read-out: TGI
  TGI: > 100 µM
UACC-62; read-out: pGI50 (converted)
  GI50: > 100 µM
UACC-62; [15]
  CC50: > 100 µM
UACC-62; read-out: pTGI (converted)
  TGI: > 100 µM
RXF 393; read-out: GI50
  GI50: 2.01 µM
RXF 393; [14]
  CC50: 19.5 µM
RXF 393; read-out: TGI
  TGI: 4.63 µM
RXF 393; read-out: pGI50 (converted)
  GI50: 2 µM
RXF 393; [15]
  CC50: 19.5 µM
RXF 393; read-out: pTGI (converted)
  TGI: 4.68 µM
786-0 [2]
  growth at 100 µM: -34%
SK-MEL-5 [3]
  growth at 1 µM: 100%
A549
  growth at 0.1 µM: 102%
KM12 [4]
  growth at 1000 µM: -28%
SF-268
  growth at 1000 µM: -53%
NCI/ADR-RES
  growth at 0.1 µM: 105%
MCF7; read-out: GI50
  GI50: 3.42 µM
MCF7; [14]
  CC50: > 100 µM
MCF7; read-out: TGI
  TGI: 45.1 µM
MCF7; read-out: pGI50 (converted)
  GI50: 3.39 µM
MCF7; [15]
  CC50: > 100 µM
MCF7; read-out: pTGI (converted)
  TGI: 44.7 µM
CCRF-CEM [5]
  growth at 1 µM: 100%
SK-MEL-5 [6]
  growth at 100 µM: 28%
SK-MEL-28; read-out: GI50
  GI50: 6.85 µM
SK-MEL-28; [14]
  CC50: 48.7 µM
SK-MEL-28; read-out: TGI
  TGI: 20.2 µM
SK-MEL-28; read-out: pGI50 (converted)
  GI50: 6.92 µM
SK-MEL-28; [15]
  CC50: > 49 µM
SK-MEL-28; read-out: pTGI (converted)
  TGI: 20.4 µM
LOX IMVI
  growth at 0.1 µM: 97%
SK-MEL-5 [7]; read-out: GI50
  GI50: 4.34 µM
SK-MEL-5 [7]; [14]
  CC50: > 100 µM
SK-MEL-5 [7]; read-out: TGI
  TGI: > 100 µM
SK-MEL-5 [7]; read-out: pGI50 (converted)
  GI50: 4.37 µM
SK-MEL-5 [7]; [15]
  CC50: > 100 µM
SK-MEL-5 [7]; read-out: pTGI (converted)
  TGI: > 100 µM
IGROV-1
  growth at 10 µM: 93%
DU-145; [14]
  CC50: 12.5 µM
DU-145; read-out: pGI50 (converted)
  GI50: 5.01 µM
DU-145; [15]
  CC50: 77.6 µM
DU-145; read-out: pTGI (converted)
  TGI: 19.5 µM
MDA-MB-435
  growth at 1000 µM: 8%
SK-MEL-2; read-out: GI50
  GI50: 5.42 µM
SK-MEL-2; [14]
  CC50: > 100 µM
SK-MEL-2; read-out: TGI
  TGI: 33.1 µM
SK-MEL-2; read-out: pGI50 (converted)
  GI50: 5.37 µM
SK-MEL-2; [15]
  CC50: > 100 µM
SK-MEL-2; read-out: pTGI (converted)
  TGI: 33.1 µM
CCRF-CEM [8]
  growth at 10 µM: 92%
SF-295 [9]
  growth at 10 µM: 88%
OVCAR-5 [10]
  growth at 1000 µM: 27%
786-0 [11]; read-out: GI50
  GI50: 2 µM
786-0 [11]; [14]
  CC50: 17.9 µM
786-0 [11]; read-out: TGI
  TGI: 5.21 µM
786-0 [11]; read-out: pGI50 (converted)
  GI50: 2 µM
786-0 [11]; [15]
  CC50: 17.8 µM
786-0 [11]; read-out: pTGI (converted)
  TGI: 5.25 µM
OVCAR-3
  growth at 10 µM: 116%
HCC 2998
  growth at 1 µM: 96%
OVCAR-5 [12]; read-out: GI50
  GI50: 31.1 µM
OVCAR-5 [12]; [14]
  CC50: > 100 µM
OVCAR-5 [12]; read-out: TGI
  TGI: > 100 µM
OVCAR-5 [12]; read-out: pGI50 (converted)
  GI50: 30.9 µM
OVCAR-5 [12]; [15]
  CC50: > 100 µM
OVCAR-5 [12]; read-out: pTGI (converted)
  TGI: > 100 µM
NCI-H322M
  growth at 100 µM: 89%
NCI-H522
  growth at 100 µM: 32%
SF-295 [13]; read-out: GI50
  GI50: 5.73 µM
SF-295 [13]; read-out: LC50
  LC50: > 100 µM
SF-295 [13]; read-out: TGI
  TGI: > 100 µM
SF-295 [13]; read-out: pGI50 (converted)
  GI50: 5.75 µM
SF-295 [13]; read-out: pLC50 (converted)
  LC50: > 100 µM
SF-295 [13]; read-out: pTGI (converted)
  TGI: > 100 µM

## CNC(=O)OC[C@H]1O[C@@H](n2cnc3c(NC(=O)Nc4ccccc4)ncnc32)[C@H](O[Si](C)(C)C(C)(C)C)[C@@H]1O[Si](C)(C)C(C)(C)C
KM12 [1]
  growth at 10 µM: 110%
IGROV-1
  growth at 10 µM: 111%
SF-295 [9]
  growth at 10 µM: 108%
OVCAR-3
  growth at 10 µM: 107%
